Here are results for 48 compounds from patent US20050013914A1, “Method of sustaining aroma and use thereof” (priority 2001, published 2005).

Where two headings read alike, the source gives them in different places.

Format in all cases: physicochemical
Data set [1] in a line: Adsorption of liquid ethanol or acetic acid on saccharide powder (Example C-1). To be noted: until mixture did not keep a powder form; for Amount of Adsorbed Acetic Acid: acetic acid adsorbed on 1 g of saccharide; for Amount of Adsorbed Ethanol: ethanol adsorbed on 1 g of saccharide. The text has this:
CTS crystalline pentahydrate, prepared by the method described in Example B-3, CTS crystalline monohydrate, prepared by the method described in Example B-4, CTS crystalline anhydrate, prepared by the method described in Example B-5, or CTS amorphous anhydrate prepared by the method described in Example B-6, was used for preparation of aroma-retaining material. “ISOELEAT P™”, a branched cyclodextrin commercialized by Maruha corporation, Tokyo, Japan, anhydrous trehalose prepared by the method described in Japanese Patent Kokai No. 111,284/97, “PINEFIBRE™”, a dextrin commercialized by Matsutani Chemical Industries Co., Ltd., Tokyo, Japan, or soluble starch in a reagent grade commercialized by Katayama Chemical Industries, Co., Ltd., Tokyo, Japan, was dried in vacuo at 80° C. for 16 hours as control saccharides. […] The resulting mixture was weighed. The weight of ethanol or acetic acid was calculated by subtracting the pre-measured saccharide weight. The weight of ethanol or acetic acid adsorbed on 1 g of each saccharide was in Table 1.

The nature of data set [2]: Adsorption of aromatic substances on CTS crystalline anhydrate (Example C-3). As for the experimental part: The following explains the experimental method in detail. […] The amount of the adsorbed aromatic substances was calculated by measuring the weight of the resulting powders and subtracting their starting powder weight (4 g).
Data set [3] is described as follows: Adsorption and 10-day retention of lavender oil, citronellol or phenethyl alcohol on saccharides (Example C-4). The settings on record: for Amount of the Adsorbed Substance: freshly prepared sample; for Relative Amount of the Retained Substance: preserved at 25° C. for 10 days vs freshly prepared. The text has this:
The following example is a test to confirm the effect of CTS crystalline hydrate, CTS crystalline anhydrate, or CTS amorphous anhydrate on retaining, as an aromatic substance, lavender oil, citronellol, or phenethyl alcohol. CTS crystalline pentahydrate prepared by the method described in Example B-3, CTS crystalline anhydrate in Example B-5, and CTS amorphous anhydrate in Example B-6 were used as the test saccharides “ISOELEAT P®”, a branched cyclodextrin commercialized by Maruha Corporation, Tokyo, Japan, was used as a control.
In the case of lavender oil, five parts by weight of each of the above saccharides were taken into a glass dish sized 90 mm in diameter and 20 mm in depth, admixed with one part by weight of lavender oil by stirring. Lavender oil was measured by the method described as follows; admixing 2 ml of diethyl ether with 1 g of each of the above samples freshly prepared or after preserved at 25° C. for 10 days; measuring the extracted lavender oil by gas chromatography using “GC-14B” (a gas chromatography commercialized by Shimazu corporation, Kyoto, Japan) equipped with “TC-Wax” (a capillary column sized 0.53 mm in diameter and 25 m in length commercialized by GL Sciences Inc., Tokyo, Japan.
In the case of citronellol or phenethyl alcohol, five parts by weight of each of the above saccharides were taken into a glass dish sized 90 mm in diameter and 20 mm in depth, admixed with one part by weight of citronellol or phenethyl alcohol, and mixed by stirring. The adsorbed citronellol or phenethyl alcohol was measured by admixing 2 ml of diethyl ether with 1 g of each of the above sample freshly prepared or after preserved at 25° C. for 10 days, and measuring the extracted lavender oil by gas chromatography using “GC-14B” (a gas chromatography device commercialized by Shimazu corporation, Kyoto, Japan) equipped with “DB-5” (a capillary column sized 0.25 mm in diameter and 30 m in length commercialized by GL Sciences Inc., Tokyo, Japan).
The amount of the retained aromatic substance in each sample was calculated using the following formula, and the results were shown in Table 4.
Formula: Relative amount of the retained Substance (%)={(an amount of aromatic substance in a sample preserved for 10 days)/(an amount of aromatic substance in a freshly prepared sample)}×100

[4] abbreviates: aromatic substance adsorbed per 1 g of CTS crystalline anhydrate.
Setting [5] is: citronellol, listed as Sample 1.
[6] abbreviates: lavender oil, listed as Sample 1.
The mark [7] stands for this setting: phenethyl alcohol, listed as Sample 1.
Setting [8] is: citronellol, listed as Sample 3.
Setting [9] is: lavender oil, listed as Sample 3.
[10] abbreviates: phenethyl alcohol, listed as Sample 3.

With `OCC1OC2OCC3O[C@H](O[C@H]4C(O)C(CO)OC(OCC5O[C@H](O[C@@H](C1O)C2O)C(O)C(O)[C@@H]5O)C4O)C(O)C(O)[C@@H]3O` (some centres unmarked) [CTS crystalline monohydrate], in data set [1], the “Amount of Adsorbed Acetic Acid” value was 0.35 g and the “Amount of Adsorbed Ethanol” value is on record as 0.45 g.
Consider `OCCCCO` [1,4-Butanediol], for which the “Amount of Adsorbed Substance” value in data set [2] came out at 0.28 g.
As to `CC(C)(C)N=C=S` [t-Butylisothiocyanate], in data set [2] (setting [4]), the “Amount of Adsorbed Substance” value amounted to 0.36 g.
As to `CCCCC(=O)O` [Valeric Acid], in data set [2] (setting [4]), the “Amount of Adsorbed Substance” value was 0.47 g.
As to `CCCCCCCC(=O)O` [Octanic Acid], the “Amount of Adsorbed Substance” value in data set [2] (setting [4]) is reported as 0.47 g.
Regarding `CCC(=O)O` [Propionic Acid], the “Amount of Adsorbed Substance” value in data set [2] (setting [4]) is listed as 0.50 g.
Still for that read-out and setting: the same measure for `CCCCCCCCO` [1-Octanol]: 0.28 g.
In the case of `OCC1OC2OCC3O[C@H](O[C@H]4C(O)C(CO)OC(OCC5O[C@H](O[C@@H](C1O)C2O)C(O)C(O)[C@@H]5O)C4O)C(O)C(O)[C@@H]3O` (some centres unmarked) [CTS crystalline pentahydrate], the “Amount of the Adsorbed Substance” value in data set [3] (citronellol, listed as CTS crystalline hydrate) turned out to be 155 mg/g saccharide; in data set [3] (setting [5]), 155 mg/g saccharide; in data set [3] (lavender oil, listed as CTS crystalline hydrate), 150 mg/g saccharide; in data set [3] (setting [6]) it was 150 mg/g saccharide; in data set [3] (phenethyl alcohol, listed as CTS crystalline hydrate), 140 mg/g saccharide; in data set [3] (setting [7]) it was 140 mg/g saccharide. Also, the results for the “Relative Amount of the Retained Substance” value in data set [3] (setting [5]), in data set [3] (setting [6]) and in data set [3] (setting [7]) were 30%, 1% and 3%, respectively. Further, the “Amount of Adsorbed Acetic Acid” value in data set [1] was 0.27 g. Moreover, the “Amount of Adsorbed Ethanol” value in data set [1] was found to be 0.32 g.
Take `OCc1ccccc1` [Benzyl Alcohol]: the “Amount of Adsorbed Substance” value in data set [2] (setting [4]) was 0.43 g.
Turning to `CC(C)=CCCC(C)CC=O` (centres unmarked) [Citronellal], in data set [2] (setting [4]), the “Amount of Adsorbed Substance” value is 0.46 g.
Regarding `ClC(Cl)Cl` [Chloroform], in data set [2], the “Amount of Adsorbed Substance” value was determined as 0.32 g.
As to `C=CC(C)(O)CCC=C(C)C` (centres unmarked) [Linalool], the “Amount of Adsorbed Substance” value in data set [2] (setting [4]) stood at 0.42 g.
On to `CC(C)O` [2-Propanol], for which the “Amount of Adsorbed Substance” value in data set [2] (setting [4]) stood at 0.48 g.
Take `ClCc1ccccc1` [Benzyl Chloride]: the “Amount of Adsorbed Substance” value in data set [2] (setting [4]) is 0.32 g.
Consider `CC1=CCC(O)(C(C)C)CC1` (centres unmarked) [Terpinen-4-ol], for which the “Amount of Adsorbed Substance” value in data set [2] (setting [4]) stood at 0.34 g.
On to `CC(=O)CC(C)(C)O` [Diacetone Alcohol], for which the “Amount of Adsorbed Substance” value in data set [2] (setting [4]) came out at 0.28 g.
As to `CCO` [Ethanol], the “Amount of Adsorbed Substance” value in data set [2] (setting [4]) was 0.50 g.
With `CC(C)CO` [2-Methyl-1-Propanol], the “Amount of Adsorbed Substance” value in data set [2] (setting [4]) turned out to be 0.36 g.
Still for that read-out and setting: the figure for `C=CCN=C=S` [Allylisothiocyanate] is 0.37 g.
On to `CCCCCO` [1-Pentanol], for which the “Amount of Adsorbed Substance” value in data set [2] (setting [4]) was 0.31 g.
Consider `COc1ccccc1O` [o-Methoxyphenol], for which the “Amount of Adsorbed Substance” value in data set [2] (setting [4]) was 0.42 g.
As to `Cc1ccccc1` [Toluene], in data set [2], the “Amount of Adsorbed Substance” value stood at 0.29 g.
Turning to Bornylacetate, in data set [2] (setting [4]), the “Amount of Adsorbed Substance” value stood at 0.48 g.
On the same count and under the same terms, the same measure for `NCCO` [2-Aminoethanol]: 0.13 g.
Turning to `CCCCCCO` [1-Hexanol], in data set [2] (setting [4]), the “Amount of Adsorbed Substance” value was determined as 0.41 g.
On to `CC(=O)O` [Acetic Acid], for which, in data set [2] (setting [4]), the “Amount of Adsorbed Substance” value amounted to 0.47 g.
With `C=C(C)[C@H]1CC=C(C)CC1` [Limonene], the “Amount of Adsorbed Substance” value in data set [2] (setting [4]) is listed as 0.42 g.
As for 3-Methyl-1-Propanol, in data set [2] (setting [4]), the “Amount of Adsorbed Substance” value stood at 0.36 g.
Take `CC(C)c1cccc(=O)c(O)c1` [Hinokithiol]: the “Amount of Adsorbed Substance” value in data set [2] (setting [4]) turned out to be 0.29 g.
For `CC(C)(C)O` [2-Methyl-2-Propanol], the “Amount of Adsorbed Substance” value in data set [2] is 0.32 g.
As for `OCCCc1ccccc1` [3-Phenyl-1-Propanol], the “Amount of Adsorbed Substance” value in data set [2] (setting [4]) was 0.52 g.
Consider `OCCc1ccccc1` [Phenethyl Alcohol], for which the “Amount of Adsorbed Substance” value in data set [2] (setting [4]) was determined as 0.40 g.
`c1ccccc1` [Benzene]: the “Amount of Adsorbed Substance” value in data set [2] (setting [4]) came to 0.14 g.
On to `CC1=CC=C(C(C)C)CC1` [α-Terpinene], for which, in data set [2] (setting [4]), the “Amount of Adsorbed Substance” value was found to be 0.37 g.
Regarding `CC(C)=CCCC(C)CCO` (centres unmarked) [Citronellol], the “Amount of Adsorbed Substance” value in data set [2] (setting [4]) was determined as 0.39 g.
In the case of `O=CO` [Formic Acid], in data set [2], the “Amount of Adsorbed Substance” value stood at 0.24 g.
For `CC(C)=CCC/C(C)=C/CO` [Geraniol], the “Amount of Adsorbed Substance” value in data set [2] (setting [4]) is on record as 0.32 g.
With `CCOCC` [Diethyl Ether], the “Amount of Adsorbed Substance” value in data set [2] is 0.17 g.
Consider `C=C1CCC2CC1C2(C)C` (stereo not drawn) [β-Pinene], for which the “Amount of Adsorbed Substance” value in data set [2] (setting [4]) was 0.30 g.
`CC1=CCC2CC1C2(C)C` (stereo not drawn) [α-Pinene]: the “Amount of Adsorbed Substance” value in data set [2] (setting [4]) is 0.35 g.
Consider `OCC1OC2OCC3O[C@H](O[C@H]4C(O)C(CO)OC(OCC5O[C@H](O[C@@H](C1O)C2O)C(O)C(O)[C@@H]5O)C4O)C(O)C(O)[C@@H]3O` (some centres unmarked) [CTS amorphous anhydrate], for which, in data set [3] (citronellol), the “Adsorbing capability relative to branched cyclodextrin” value was “about 1.2 fold”. Also, the “Amount of the Adsorbed Substance” value in data set [3] (citronellol) was determined as 190 mg/g saccharide; in data set [3] (setting [8]), 190 mg/g saccharide; in data set [3] (lavender oil, listed as CTS amorphous anhydrte), 185 mg/g saccharide; in data set [3] (setting [9]), 185 mg/g saccharide; in data set [3] (phenethyl alcohol), 180 mg/g saccharide; in data set [3] (setting [10]), 180 mg/g saccharide. Further, the “Relative Amount of the Retained Substance” value in data set [3] (setting [8]) is reported as 40%; in data set [3] (setting [9]), 8%; in data set [3] (setting [10]), 12%. Further, the “Adsorbing capacity relative to branched cyclodextrin” value in data set [3] (lavender oil) was “about 1.3 fold”. Further, in data set [1], the “Amount of Adsorbed Acetic Acid” value turned out to be 0.47 g. Also, the “Amount of Adsorbed Ethanol” value in data set [1] is 0.49 g.
`CCCCCC(=O)O` [Capronic Acid]: the “Amount of Adsorbed Substance” value in data set [2] (setting [4]) is reported as 0.47 g.
The same measure, in the same setting: the figure for 1-Propanol is 0.46 g; for `CC(C)C(=O)O` [Isobutyric Acid] it is 0.51 g; for `CC1=CCC(C(C)(C)O)CC1` (stereo not drawn) [α-Terpineol] it is 0.33 g.
With `CCCC(=O)O` [Butyric Acid], the “Amount of Adsorbed Substance” value in data set [2] (setting [4]) came to 0.55 g.
The same measure, in the same setting: the same measure for `CCCCCOC(C)=O` [Pentylacetate]: 0.46 g.
In the case of `CO` [Methanol], the “Amount of Adsorbed Substance” value in data set [2] amounted to 0.61 g.
